Assay results from paper PMC4387272, “Pharmacokinetic, pharmacodynamic and biomarker evaluation of transforming growth factor-β receptor I kinase inhibitor, galunisertib, in phase 1 study in patients with advanced cancer” (Investigational new drugs, 2014).
Where “and” joins values, the source holds several entries; their conditions need not be identical. Identical values can stand only once. Marks after values point to notes of the source that are not given here.

Key:
[1] = Safety and blood counts in first-in-human dose study; assay type: in vivo
Description: (§1) An amendment was introduced to assess T cell subsets in Part B and Part C.

[2] = tested on: ID1 and CD44; set-up: method as in PMID 21156287; conditions: 1 patient, surgical re-resection during off-period of intermittent dosing; cited from earlier work
[3] = tested on: T cell subsets (CD3+, CD8+, CD4+, CD4+CD25+CD127-/LOFoxp3+); test: Flow cytometry for T cell subsets; assay type: in vivo, Human
Description: Blood samples were obtained and prepared for flow cytometry assessment following the instructions of Quintiles Laboratories (Durham, NC). After red blood cell lysis, cells were stained for CD3^+, CD8^+, CD4^+ and CD4^+CD25^+ CD127^−/LOFoxp3^+ and events were collected by flow cytometer per standard Quintiles procedures. All results were reported as absolute cell counts and as percentage of lymphocytes.
as §1

[4] = tested on: MDC/CCL22; test: Multi-analyte immunoassay panel (MAIP) of plasma proteins; assay type: in vivo, Human; conditions: Part A and Part B, data not shown
Experimental: Plasma samples were analyzed for PD assessments by using a multi-analyte immunoassay panel (MAIP) (Myriad RBM, Austin, TX). The MAIP measurements included 89 plasma proteins. These proteins were evaluated at baseline and during the first cycle of treatment.
MDC/CCL22 is associated with modulating T regulatory cells and it may be involved in the activation of antigen-presenting cells. Whether such levels confer a better prognosis remains to be assessed. The lack of a change in MDC/CCL22 may perhaps indicate that this chemokine is not affected by galunisertib, but long-term examinations will be needed to further confirm this initial impression. Other plasma proteins were also found to be at different levels for patients treated with ≥6 cycles or ≤6 cycles.

[5] = tested on: glioma; test: Radiographic response / clinical benefit (RECIST, Macdonald criteria) in first-in-human dose study; assay type: in vivo; conditions: for Cycles (n) (best response): individual glioma patients with sequenced tumor; for CR/PR/SD ≥6 cycles, Low grade/secondary glioma / CR/PR/SD ≥6 cycles, Primary glioma: number of patients; for Clinical Benefit / No Clinical Benefit: Parts A and B
Experimental: Starting with Cohort 3, only patients with relapsed and progressive glioma were eligible for this study. All patients were assessed for radiographic responses using Response Evaluation Criteria in Solid Tumors (RECIST) and, for glioma patients, using Macdonald criteria. All patients had to have an Eastern Cooperative Oncology Group performance status of ≤2. Patients were required to have adequate hematologic, hepatic, and renal function and discontinue all previous therapies for cancer at least 4 weeks prior to study enrollment. Exclusion criteria included medically uncontrolled cardiovascular illness, electrocardiogram anomalies, serious pre-existing medical conditions, and any unapproved therapy.
• Part A was a dose escalation study using galunisertib monotherapy administered initially to patients with advanced or metastatic cancer as a daily continuous dosing. Starting with Cohort 3 and for the remainder of the study, patients received galunisertib on an intermittent dose regimen of 14 days on/14 days off for a 28-day cycle. • Part B was a safety study using galunisertib on an intermittent dose regimen at 160 mg/day (80 mg twice daily [BID]) and 300 mg/day (150 mg BID) in combination with lomustine given once every 6 weeks in patients with recurrent malignant glioma who had previously failed approved treatments. • Part C was a relative bioavailability (RBA) crossover study conducted at only one center to assess two new formulations (publication in preparation). All patients were then eligible to continue on 300 mg/day dosing. In this part of the study, patients with different tumor histologies were eligible to participate; the majority of patients had glioma. The only results from Part C presented in this publication are the results of the T cell subset examination. Other results will be published elsewhere.
A power model was fitted to PK parameter estimates Cmax and AUC(0–24) to assess the extent of dose proportionality. Clinical benefit in this study has been defined as a patient with either a complete response (CR), partial response (PR), and stable disease (SD) ≥6 cycles. MAIP results from plasma samples taken at baseline were compared between patients completing >6 cycles and ≤6 cycles using ANOVA. The analysis included controlling the false discovery rate to 30 % using the Benjamini-Hochberg method. Boxplots showing the distributions at baseline of the potentially prognostic markers are provided. Observed TGF-β-stimulated pSMAD2 (pSMAD2^+) in PBMCs was normalized by TGF-β-stimulated tSMAD2 [(tSMAD2^+) ^0.6[9, 10]] prior to determining the minimum normalized pSMAD2^+ and calculating percentage inhibition post-baseline for each patient. Baseline and minimum post-baseline values for each patient together with maximum percentage inhibition are presented on a line and scatter plot for each patient in Cohort 3 and summary statistics by time point provided from a standard mixed effects regression model, fitting log normalized pSMAD2^+ to the fixed effects of log baseline normalized pSMAD2^+, nominal time point, dose and their interaction and patient as a random effect.
In order to interpret protein and gene expression as potential prognostic factors we used the concept of clinical benefit based on radiographic response and/or stable disease for ≥6 cycles (Table 3).

[6] = patients with advanced cancer, first-in-human dose study
[7] = Part B, in combination with lomustine
[8] = Part B, in combination with lomustine, n=26
[9] = Primary glioma (n=13), IDH1/2 mutation
[10] = Primary glioma (n=13), Other mutation
[11] = Secondary or low grade glioma (n=8), IDH1/2 mutation
[12] = Secondary or low grade glioma (n=8), Other mutation

SMILES: Cc1cccc(-c2nn3c(c2-c2ccnc4ccc(C(N)=O)cc24)CCC3)n1 [galunisertib]
- lymphocyte counts ([1]; Part B, combination of galunisertib and lomustine, some patients): reduction in lymphocyte counts
- bone marrow toxicity (neutrophils, platelets, lymphocyte counts) ([1]; Part C, monotherapy 300 mg/day, patients receiving more than 2 cycles): no comparable bone marrow toxicity
- cardiac adverse events [1, 6]: no cardiac adverse events
- toxicity / safety profile [1, 6]: favorable safety profile
- toxicity / safety profile ([1]; patients with advanced cancer, first-in-human dose study, listed as Galunisertib): favorable toxicity profile
- expression of ID1 and CD44 in tumor tissue after treatment [2]: reduced
- lymphocyte counts and the respective subsets [3, 7]: reduced
- counts of CD3+, CD8+, CD4+ and CD4+CD25+CD127−/LOFoxp3+ cells ([3]; Part C, monotherapy): either stabilized or increased
- post-treatment plasma levels of MDC/CCL22 [4]: did not show a change
- patients with primary glioblastoma showing radiographic responses or SD ≥6 cycles ([5]; 3/13 patients, no IDH1 or IDH2 mutation): 23%
- patients with tumors not containing the EGFR variant treated for ≥6 cycles ([5]; 7/13 patients): 54%
- patients with tumors containing EGFR variants treated for <6 cycles ([5]; 8/8 patients (2 in Part A and 6 in Part B)): 100%
- patients with clinical benefit (CR, PR or SD ≥6 cycles) ([5]; 12 of 79 patients, all parts, all in glioma): 15%
- cycles treated, patients still receiving galunisertib as of June 2014 ([5]; Part A, 2 individual patients): 73 cycles and 55 cycles
- Cycles on study treatment, median (range) ([5]; Part A, monotherapy, N=39): 2 (1–46)
- Cycles (n) (best response) ([5]; Part A, monotherapy): 3 and 2 and 1 and 29 (CR) and 13 (PR) and 22 (PR) and 46 (CR) and 40 (SD)
- CR/PR ([5]; Part A, monotherapy, n=30): 5 (16.7) n (%)
- CR/PR/SD ≥6 cycles ([5]; Part A, monotherapy, n=30): 6 n (%) and 6 (20.0) n (%)
- On study treatment at study closure in 2012 ([5]; Part A, monotherapy, n=30): 2 (6.7) n (%)
- CR/PR/SD ≥6 cycles, Low grade/secondary glioma ([5]; Part A, monotherapy): 3
- CR/PR/SD ≥6 cycles, Primary glioma ([5]; Part A, monotherapy): 3
- cycles treated, patient still receiving galunisertib as of June 2014 ([5]; Part B, 1 patient): 48 cycles
- Cycles on study treatment, median (range) ([5]; Part B, in combination with lomustine, N=26): 2 (1–22)
- Cycles (n) (best response) [5, 7]: 10 (PR) and 12 (SD) and 2 and 4 and 1
- CR/PR [5, 8]: 2 (7.7) n (%)
- CR/PR/SD ≥6 cycles [5, 8]: 6 ^* n (%) and 6 (23.1) ^* n (%)
- On study treatment at study closure in 2012 [5, 8]: 1 (3.8) n (%)
- CR/PR/SD ≥6 cycles, Low grade/secondary glioma [5, 7]: 4
- CR/PR/SD ≥6 cycles, Primary glioma [5, 7]: 2
- Clinical Benefit [5, 9]: 0/13
- No Clinical Benefit [5, 9]: 0/13
- Clinical Benefit [5, 10]: 3/13
- No Clinical Benefit [5, 10]: 10/13
- Clinical Benefit [5, 11]: 4/8
- No Clinical Benefit [5, 11]: 1/8
- Clinical Benefit [5, 12]: 0/8
- No Clinical Benefit [5, 12]: 3/8
- patients with clinical benefit (CR/PR and SD ≥6 cycles) among patients with IDH1/2 mutation ([5]; of the 5 patients with IDH1/2 mutation): 4 patients
